Experimental data: patent US6951866B2, “Bicyclic pyrimidine compounds and therapeutic use thereof” (Sumitomo Pharmaceuticals Company, Limited, priority 1998, dated 2005)
Like-named read-outs stand apart in the source and are kept apart here.

Columns and labels:
Assay type in all cases: cell-based
[1] = test system: IL-4; assay: Cytokine production (IL-4) from KLH-stimulated mouse lymph node cells, ELISA; details: 4 days; for IC50: Mus musculus, 96 h, lymph node cells of KLH-sensitized BALB/c mice, KLH 0.1 mg/ml, read-out: IL-4 inhibition activity IC50; for production of IL-4: Test 3, KLH-stimulated mouse lymph node cells
Description: (§1) Activity on Cytokines Production from Mouse Lymph Node Cells by Compounds of Working Examples
(§2) BALB/c mice were purchased from Japan Charlse River (Yokohama) and 8 weeks female mice were used.
(§3) D-MEM (High Glucose) medium (Nikken Biomedical Research Lab. (Kyoto), Code No. CM4402) supplemented with 20% heat-inactivated (56° C., 30 min.) fetal bovine serum (Characterized, Code No. A-1115-L, HyClone Lab., Logan, Utah), 50 μM 2-mercaptoethanol (Sigma, St. Louis, Mo., Code No. M-6250), 100 unit/ml penicillin and 100 μg/ml streptomycin (Penicillin-Streptomycin, Bibco-BRL, Code No. 15140-122) were used for the assay.
Each test compound dissolved in DMSO (Nacalai Tesque (Kyoto) code No. 11J) at a concentration of 100 mM was diluted to final concentration with the medium.
KLH (0.2 mg) was subcutaneously administered to mouse foot with Freund's complete adjuvant (Difco Lab., Detroit, Mich., Code No. 3113-60-5). Eight days later popliteal lymph node was picked up and its cell suspension was prepared.
(§4) KLH (0.1 mg/ml) and the test compound were added to lymph node cells (2.5×10^6 cells/ml) and the mixture was incubated at 37° C. under 5% CO2 for 4 days (Corning 25850, 0.15 ml/well). Then, amount of cytokine produced in the supernatant was measured by ELISA specific to cytokine.
(§5) Amounts of interleukin 4 (IL-4) and interleukin 5 (IL-5) as a typical Th2 type cytokine, and amount of interferon γ (IFN-γ) as a typical Th1 type cytokine were measured.
Amount of IL-4 was measured by ELISA as mentioned below. A rat anti-mouse IL-4 antibody (Pharmingen, San Diego, Calif., Code No. 18031D, 0.5 mg/ml) as a primary antibody was diluted 250 times with hydrogen carbonate buffer, and it was inoculated to the 96-well plate (Falcon 3912, Becton Dickinson and Company, Flanklin Lakes, N.J.) (50μ/well) and each well was coated at 4° C. overnight. Then the plate was blocked with PBS (−) solution (phosphate-buffered saline without calcium chloride and magnesium chloride) containing 3% BSA (200 μl/well). After rinsing the plate three times with PBS (−) solution containing 0.05% polyoxyethylene solbitan monolaurate (Tween 20™, Nacalai Tesque (Kyoto) Code No. 281-51) (PBST), the supernatant of the culture medium was added to the wells (50 μl/well) and incubated at room temperature for 4 hours. Recombinant mouse IL-4 (Pharmingen, Code No. 19231W) was used for preparing a calibration curve.
After rinsing the plate three times with PBST, a rat anti-mouse IL-4 antibody labeled by biotin (Pharmingen, Code No. 18042D, 0.5 mg/ml) as a secondary antibody, which was diluted 500 times with PBS (−) solution containing 0.1% BSA, was poured into wells (100 μl/well). The plate was incubated at room temperature for one hour. The secondary antibody bound to the plate was detected with streptoabidin alkaliphosphatase (Kirkegaad & Perry Lab., Gaithersburg, Md., Code No. 15-30-00) (0.25 μg/ml, 100 μl/well). After incubation of the plate at 37° C. for one hour and rinsing the plate three times with PBST, the coloring was done by adding PNPP substrate (p-nitrophenyl disodium phosphate substrate (Nacalai Tesque) (1 mg/ml, 100 μl/well)). The absorption at 415 nm was measured by a microplate reader (MTP-120 Microplate reader, Corona Electric Co.)
In the same manner as in Test 1, each test compound dissolved in DMSO (Nacalai Tesque (Kyoto) code No. 11J) at a concentration of 100 mM was diluted to final concentration with the medium. Sensitization and preparation of lymph node cells, production of cytokine by stimulation with an antigen and measurement of amounts of cytokines were conducted in the same method as in Test 1.
By measuring inhibition rate of production of IL-4 at various concentrations of each test compound and using a graph relating to the compound concentration and the inhibition rate, 50% inhibition concentration (IC50) on each test compound was calculated.

[2] = test system: IL-5; assay: Cytokine production (IL-5) from KLH-stimulated mouse lymph node cells, ELISA; details: Test 3, 4 days
Description: as §1, §2, §3
(§6) Each test compound dissolved in DMSO (Nacalai Tesque (Kyoto) code No. 11J) at a concentration of 100 mM was diluted to final concentration with the medium. […]
as §4, §5
(§7) Amount of IL-4 was measured by ELISA as mentioned below. […]

[3] = test system: IFN-γ; assay: Cytokine production (IFN-γ) from KLH-stimulated mouse lymph node cells, ELISA; details: Test 3, 4 days
Description: as §1, §2, §3, §6, §4, §5, §7

Row | Structure (SMILES) | IC50 ([1]; Test 2, Table 1) [µg/mL] | further results
1 | CCOC(=O)C(C)Nc1nc(N)nc2c1CCCC2 (stereo not drawn) [Example 7, Ethyl 2-[(2-amino-5,6,7,8-tetrahydroquinazoline-4-yl)amino]propanoate] | 0.5 | 
2 | CCOC(=O)C(CO)Nc1nc(N)nc2c1CCCC2 (stereo not drawn) [Example 8, Ethyl 2-[(2-amino-5,6,7,8-tetrahydroquinazoline-4-yl)amino]-3-hydroxypropanoate] | 1 | 
3 | CCCCCNc1nc(N)nc(C)c1Cc1ccccc1 [Example 26, N-(2-Amino-5-benzyl-6-methylpyrimidine-4-yl)-N-pentylamine] |  | IC50 ([1]; Test 4, Table 2): 0.5 µg/mL; production of IL-4 [1]: inhibit the production; production of IL-5 [2]: inhibit the production; production of IFN-γ [3]: enhance the production
4 | CCCCCNc1nc(N)nc2c1CCCC2 [Example 19, N-(2-Amino-5,6,7,8-tetrahydroquinazoline-4-yl)-N-pentylamine] | 0.2 | 
5 | CCCCC(Nc1nc(N)nc2c1CCCC2)C(=O)OC (stereo not drawn) [Example 9, Methyl 2-[(2-amino-5,6,7,8-tetrahydroquinazoline-4-yl)amino)hexanoate] | 1 | 
6 | CCCCC(Nc1nc(N)nc2c1CCCC2)C(N)=O (stereo not drawn) [Example 21] | 0.5 | 
7 | CCOC(=O)CNc1nc(N)nc2c1CCCC2 [Example 1, Ethyl-2-[(2-amino-5,6,7,8-tetrahydroquinazoline-4-yl)amino]acetate] | 0.6 | 
8 | CCCCCNc1nc(N)nc(C)c1C [Example 18, N-(2-Amino-5,6-dimethylpyrimidine-4-yl)-N-pentylamine] | 0.3 | 
9 | Nc1nc2c(c(NCC3CCCO3)n1)CCCC2 (stereo not drawn) [Example 13, N-(2-Amino-5,6,7,8-tetrahydroquinazoline-4-yl)-N-(tetrahydorofuran-2-ylmethyl)amine] | 10 | 
10 | CCCCCNc1nc(N)nc2c1CCC2 [Example 20, N-(2-Amino-6,7-dihydro-5H-cyclopenta[d]pyrimidine-4-yl)-N-pentylamine] | 0.3 | 
11 | CCCCCNc1nc(N)nc(CCCC)c1C [Example 17, N-(2-Amino-6-butyl-5-methylpyrimidine-4-yl)-N-pentylamine] | 5 | 
12 | CCCCCNc1nc(N)nc(C)c1CC [Example 24, N-[2-Amino-5-ethyl-6-methylpyrimidine-4-yl)-N-pentylamine] | 0.2 | 
13 | CCCCCNc1nc(N)nc(C)c1CCCC [Example 14, N-(2-Amino-5-butyl-6-methylpyrimidine-4-yl)-N-pentylamine] | 0.1 | 
14 | CCCC(O)CNc1nc(N)nc2c1CCCC2 (stereo not drawn) [Example 11, 1-[(2-Amino-5,6,7,8-tetrahydroquinazoline-4-yl)amino]pentane-2-ol] | 0.1 | 
15 | CCCCCNc1nc(N)ncc1Cc1ccccc1 [Example 27, N-(2-Amino-5-benzylpyrimidine-4-yl)-N-pentylamine] |  | IC50 ([1]; Test 4, Table 2): 1 µg/mL; production of IL-4 [1]: inhibit the production; production of IL-5 [2]: inhibit the production; production of IFN-γ [3]: enhance the production
16 | CCCCCNc1nc(N)nc(C)c1CCC#N [Example 23, 3-[2-Amino-4-methyl-6-(pentylamino)pyrimidine-5-yl]propanenitrile] | 0.5 | 
17 | CCOC(=O)C(CC(C)C)Nc1nc(N)nc2c1CCCC2 (stereo not drawn) [Example 3, Ethyl-2-[(2-amino-5,6,7,8-tetrahydroquinazoline-4-yl)amino]-4-methylpentanoate] | 0.5 | 
18 | Nc1nc2c(c(NCC3CCCCC3)n1)CCCC2 [Example 2, N-(2-Amino-5,6,7,8-tetrahydroquinazoline-4-yl)-N-(cyclohexylmethyl)amine] | 0.6 | 
19 | CCCCCNc1nc(N)nc2c1COCC2 [Example 16, N-(2-Amino-7,8-dihydro-5H-pyrano[4,3-d]pyrimidine-4-yl)-N-pentylamine] | 3 | 
20 | CCCCCCNc1nc(N)nc2c1CCCC2 [Example 6, N-(2-Amino-5,6,7,8-tetrahydroquinazoline-4-yl)-N-hexylamine] | 1 | 
21 | CCCCCCc1c(C)nc(N)nc1NCCCCC [Example 15, N-(2-Amino-5-hexyl-6-methylpyrimidine-4-yl)-N-pentylamine] | 0.4 | 
22 | CCCC(=O)CNc1nc(N)nc2c1CCCC2 [Example 12, 1-[(2-Amino-5,6,7,8-tetrahydroquinazoline-4-yl)amino]pentane-2-one] | 1 | 
23 | CCCCc1c(C)nc(N)nc1NCC(O)CCC (stereo not drawn) [Example 25, 1-[(2-Amino-5-butyl-6-methylpyrimidine-4-yl)amino]pentane-2-ol] | 0.1 | 
24 | CCOCCNc1nc(N)nc2c1CCCC2 [Example 4, N-(2-Amino-5,6,7,8-tetrahydroquinazoline-4-yl)-N-(2-ethoxyethyl)amine] | 3 | 
25 | CCCCC(CO)Nc1nc(N)nc2c1CCCC2 (stereo not drawn) [Example 10, 2-[(2-Amino-5,6,7,8-tetrahydroquinazoline-4-yl)amino]hexane-1-ol] | 0.1 | 
26 | CCCCNc1nc(N)nc2c1CCCC2 [Example 5, N-(2-Amino-5,6,7,8-tetrahydroquinazoline-4-yl)-N-butylamine] | 0.2 | 
27 | CCCCCNc1nc(N)nc(C)c1CCOC [Example 22, N-(2-Amino-5-(2-methoxyethyl)-6-methylpyrimidine-4-yl)-N-pentylamine] | 0.5 | 
